Columns and labels:
[1] = dissolution of the 11β-aminoester salts in aqueous acid (Table 5 and Examples 101, 225-229); format: physicochemical
Method: (§1) A solution of the above free base (492 mg; 1 mmole) in ethanol (10 ml) was treated with a solution (10 ml) of M/10 citric acid in ethanol water (9:1) and the mixture evaporated in vacuo at low temperature to afford a froth.
(§2) Table 5 summarises the properties and preparation of salts of the invention by one of the following methods:
(§3) A. The 11β-aminoester (1 part) was added to a solution of the acid (1 molar part) in water and the mixture stirred or shaken until a clear solution was obtained. The solution was made up with water to the weight indicated, filtered through a membrane and the pH determined.
(§4) B. The 11β-aminoester (1 part) was added to a solution of the acid (1 molar part) in water and the mixture stirred or shaken. As free base remained undissolved, further acid was added and the mixture agitated again. The solution was made up with water to the weight indicated and any material which then remained undissolved was collected in a weighed funnel and the weight of free base dissolved calculated and the pH of the solution measured.
(§5) C. A mixture of the 11β-aminoester (1 part), a 0.1 M solution of the acid (1 molar part) and ethanol was evaporated in vacuo and dried to constant weight. The residue was dissolved in a little water and any material which then remained undissolved collected in a weighed funnel and the weight of free base dissolved calculated. The solution was made up with water to the weight indicated and its pH measured.
(§6) D. The 11β-aminoester (1 part) was added to a solution of the acid (1 molar part) in water and the mixture stirred or shaken. The solution was made up with water to the weight indicated. The material remaining undissolved was collected in a weighed funnel and the weight of free base dissolved calculated and the pH of the solution measured.
(§7) E. As in method C except that further acid was added to the residue after addition of the small amount of water.
The solid citric acid used was as its monohydrate.
(§8) Sodium iodide (0.250 g) and diethylamine (0.5 ml) were added to a solution of 11β-chloroacetoxy-2β-ethoxy-3α-hydroxy-D-homo-5α-pregnan-20-one (0.250 g) in acetone (10 ml) and the mixture was left at room temperature for 3 days during which time a white solid precipated. Water was added and the yellow solution was concentrated in vacuo whereupon crystallisation occurred. The needles were filtered off and washed well with acetone/water yielding the title compound (0.201 g), m.p. 160°-73°, [α]D +60.8°. The above base (0.101 g) was stirred with citric acid monohydrate (0.042 g) in water (9.5 ml) for 21 hours. The solution was made up to 10.1 g by weight. The solid remaining out of solution was filtered off, dried and weighed. The solution was passed through a millipore filter giving an aqueous solution of the title compound, concentration 9.75 mg/ml, pH 3.66.
The above base (0.096 g) was stirred in a solution of citric acid monohydrate (0.038 g) in water (8.5 ml) for 20 hours. A large proportion of the steroid remained out of solution. More citric acid (0.038 g) was added and the mixture stirred for a further 6 hours. The solution was made up to 9.6 g by weight and the solid remaining out of solution was filtered off, dried and weighed. The solution was passed through a millipore filter giving an aqueous solution of the title compound, concentration 9.5 mg/ml, pH 2.85.
To a solution of citric acid monohydrate (52.5 mg) in water (2 ml) was added the above free base (115 mg). More water (8 ml) was added and the mixture was stirred for 72 hrs. A small amount of steroid remained out of solution and more citric acid (52.5 mg) was added. Within 5 mins. a clear solution was obtained which was made up to 11.5 g with water and filtered through a millipore filter yielding an aqueous solution of the title citrate, concentration 10 mg/ml, pH 3.0.
The above free base (112 mg) was added to a solution of citric acid monohydrate (52.5 mg) in water (2 ml). More water (8 ml) was added and the mixture was swirled from time to time. […]

pH of the salt solutions = format: physicochemical
Method: as §1, §2, §3, §4, §5, §6, §7
11β-N,N-Diethylaminoacetoxy-2β-ethoxy-3α-hydroxy-5α-pregnan-20-one (1.45 g) was agitated with citric acid monohydrate (621 mg) in 0.9% w/v sodium chloride solution (steriflex^(R)) (130 ml.) at 20° for 16.5 hours. The resulting solution was stirred at 21° and N/5 sodium hydroxide solution in steriflex^(R) (10.5 ml) was added dropwise during 30 minutes, raising the pH from 3.63 to 4.52. The solution was diluted to 162.5 g so that the concentration of steroid was 9 mg/ml. The solution of the citrate was filtered through a membrane and finally filtered into 8 sterile ampoules.
11β-(N-Butyl-N-ethylaminoacetoxy)-3α-hydroxy-5α-pregnan-20-one (1.80 g) was agitated with citric acid monohydrate (793 mg) in 0.9% w/v sodium chloride solution (steriflex^(R)) (160 ml) at 20° for 19.5 hours. The resulting solution was slightly cloudy. This solution was stirred at 21° and N/5 sodium hydroxide solution in steriflex^(R) (5.8 ml) was added dropwise during 15 minutes, raising the pH from 3.62 to 4.00. The solution was diluted to 201.2 g so that the concentration of steroid was 9 mg/ml. The cloudiness was removed by filtration through a membrane and the clear solution of the citrate was filtered into 8 sterile ampoules.
as §8, with “3.66. […]” for “3.66.”

[2] = method A: clear solution, 1 molar part acid, made up with water to WT. of solution 10 g, except Ex. 121 and 150: 12, 123: 12.3, 124: 7.5, 129: 10.3, 135 and 139: 8.95, 164: 10.35, 170: 10.4, 181: 10.04, 187: 9.5, 210: 10.2, 221: 15 g
[3] = aqueous solution of the salt, Table 5
[4] = method C: ethanol evaporated, residue in water, undissolved material weighed, WT. of solution Ex. 118: 10, 120: 10.4, 148: 9.54, 152: 5.6, 154: 9.1, 155: 8.77, 156: 9.06, 157: 9.5, 158: 9.38, 159: 9.17, 179: 9.65, 180: 11.7, 182: 4.9, 202: 12.05, 213: 12, 214: 11.5, 215: 11.1, 216: 11.6, 217: 12.1 g
[5] = method B: further acid added, undissolved material weighed, WT. of solution 10 g, except Ex. 130 and 141: 9.2, 142: 9.23, 143, 144, 189 and 199: 9.8, 149: 10.6, 153: 7.9, 162 and 188: 9.5, 163: 68, 166: 10.4, 168: 10.7, 169: 10.9, 183: 8.05, 184 and 201: 9.83, 185: 7.1, 186: 9.3, 192: 10.07, 193: 6.4, 195: 6.8, 196: 7, 197: 7.2, 200: 10.1, 206: 15 g

Structure (SMILES)	Dissolved aminoester [1, 2] [mg]	pH (pH of the salt solutions; [3])	other results
CCO[C@H]1C[C@@]2(C)[C@@H](CC[C@@H]3[C@@H]2[C@@H](OC(=O)CN(CC)CC)C[C@]2(C)[C@@H](C(C)=O)CC[C@@H]32)C[C@@H]1O.O=C(O)CC(O)(CC(=O)O)C(=O)O [Example 101 citrate salt, 11β-N,N-Diethylaminoacetoxy-2β-ethoxy-3α-hydroxy-5α-pregnan-20-one, citrate salt]			dissolution in saline ([1]; citrate salt froth, in saline): dissolved readily in saline; pH (pH of the salt solutions; solution in 0.9% w/v saline, pH adjusted with sodium hydroxide solution): 4.52; pH (pH of the salt solutions; solution of the salt in saline, before any adjustment, citrate salt): 3.5; pH (pH of the salt solutions; solution of the salt in saline, before any adjustment, listed as Example 223, citrate salt): 3.63
CCN(C)CC(=O)O[C@H]1C[C@]2(C)[C@@H](C(C)=O)CC[C@H]2[C@@H]2CC[C@H]3C[C@H](O)CC[C@]3(C)[C@H]21 [Example 116]	100	3.63	
CCCN(C)CC(=O)O[C@H]1C[C@]2(C)[C@@H](C(C)=O)CC[C@H]2[C@@H]2CC[C@H]3C[C@H](O)CC[C@]3(C)[C@H]21 [Example 117]	100	3.4	
C=CCN(CC=C)CC(=O)O[C@H]1C[C@]2(C)[C@@H](C(C)=O)CC[C@H]2[C@@H]2CC[C@H]3C[C@H](O)CC[C@]3(C)[C@H]21 [Example 118]		2.55	Dissolved aminoester [1, 4]: 38 mg
CC(=O)[C@H]1CC[C@H]2[C@@H]3CC[C@H]4C[C@H](O)CC[C@]4(C)[C@H]3[C@@H](OC(=O)CN(C)Cc3ccccc3)C[C@]12C [Example 119]		2.7	Dissolved aminoester [1, 5]: 73 mg
CCCN(CCC)CC(=O)O[C@H]1C[C@]2(C)[C@@H](C(C)=O)CC[C@H]2[C@@H]2CC[C@H]3C[C@H](O)[C@@H](OCC)C[C@]3(C)[C@H]21 [Example 120]		3.5	Dissolved aminoester [1, 4]: 87 mg
CCCCN(C)CC(=O)O[C@H]1C[C@]2(C)[C@@H](C(C)=O)CC[C@H]2[C@@H]2CC[C@H]3C[C@H](O)[C@@H](OCC)C[C@]3(C)[C@H]21 [Example 121]	120	3.65	
CCCO[C@H]1C[C@@]2(C)[C@@H](CC[C@@H]3[C@@H]2[C@@H](OC(=O)CN(CC)CC)C[C@]2(C)[C@@H](C(C)=O)CC[C@@H]32)C[C@@H]1O [Example 122]			Dissolved aminoester ([1]; method A, 0.9% w/v saline in place of water, WT. of solution Ex. 122: 37.5 g, 222: 50 g): 375 mg; pH (pH of the salt solutions; solution of the salt in saline, before any adjustment): 3.5
CO[C@H]1C[C@@]2(C)[C@@H](CC[C@@H]3[C@@H]2[C@@H](OC(=O)CN2CCCCC2)C[C@]2(C)[C@@H](C(C)=O)CC[C@@H]32)C[C@@H]1O [Example 123]	122	3.6	
CCN(CC)CC(=O)O[C@H]1C[C@]2(C)[C@@H](C(C)=O)CC[C@H]2[C@@H]2CC[C@H]3C[C@H](O)[C@@H](OC)C[C@]3(C)[C@H]21 [Example 124]	75	3.65	
COC(=O)[C@H]1CC[C@H]2[C@@H]3CC[C@H]4C[C@H](O)CC[C@]4(C)[C@H]3[C@@H](OC(=O)CN3CCCCC3)C[C@]12C [Example 125]		2.82	Dissolved aminoester [1, 5]: 98 mg
CC(=O)[C@H]1CC[C@H]2[C@@H]3CC[C@H]4C[C@H](O)CC[C@]4(C)[C@H]3[C@@H](OC(=O)CN(C)CCc3ccccc3)C[C@]12C [Example 126]		2.65	Dissolved aminoester [1, 5]: 56 mg
CC(=O)[C@H]1CC[C@H]2[C@@H]3CC[C@H]4C[C@H](O)CC[C@]4(C)[C@H]3[C@@H](OC(=O)CN(C)C3CCCCC3)C[C@]12C [Example 127]	100	3.62	
CC(=O)[C@H]1CC[C@H]2[C@@H]3CC[C@H]4C[C@H](O)CC[C@]4(C)[C@H]3[C@@H](OC(=O)CN3CCCCCCC3)C[C@]12C [Example 128]		2.65	Dissolved aminoester [1, 5]: 68 mg
CCC(C)CNCC(=O)O[C@H]1C[C@]2(C)[C@@H](C(C)=O)CC[C@H]2[C@@H]2CC[C@H]3C[C@H](O)CC[C@]3(C)[C@H]21 (stereo partly shown) [Example 129]	92.3	3.64	
CCCCCNCC(=O)O[C@H]1C[C@]2(C)[C@@H](C(C)=O)CC[C@H]2[C@@H]2CC[C@H]3C[C@H](O)CC[C@]3(C)[C@H]21 [Example 130]		3.12	Dissolved aminoester [1, 5]: 80 mg
CCN(CC)CC(=O)O[C@H]1C[C@]2(C)[C@@H](C(C)=O)CC[C@H]2[C@@H]2CC[C@H]3C[C@](C)(O)CC[C@]3(C)[C@H]21 [Example 131]	100	3.55	
CCCN(CCC)CC(=O)O[C@H]1C[C@]2(C)[C@@H](C(C)=O)CC[C@H]2[C@@H]2CC[C@H]3C[C@](C)(O)CC[C@]3(C)[C@H]21 [Example 132]	100	3.4	
CC(=O)[C@H]1CC[C@H]2[C@@H]3CC[C@H]4C[C@](C)(O)CC[C@]4(C)[C@H]3[C@@H](OC(=O)CN3CCCCC3)C[C@]12C [Example 133]	100	3.7	
